Laboratory results as given in US20180312473A1, “PHENAZINE DERIVATIVES AS ANTIMICROBIAL AGENTS” (priority 2015, published 2018).
Values after ≈ are worked out from the molar mass of the structure shown. Where two headings read alike, the source gives them in different places. Marks after values point to notes of the source that are not given here.

Assays:
[1] = Spectrophotometric determination of dissociation constants (pKa); assay type: physicochemical; settings: UV-vis at varying pH, 1:1 water:methanol buffers
Experimental: Dissociation constants (pKa) for select analogues were determined by implementing UV-vis spectroscopy at varying pH values. Buffers were prepared using potassium phosphate monobasic (KH2PO4) and sodium phosphate dibasic (Na2HPO4) in a 1:1 solution of water:methanol to achieve a pH range of 3.78 to 10.94. Compounds were added from 10 mM stock solutions in dimethyl sulfoxide (12.5 μL) to 987.5 μL of each buffer to yield a final compound concentration of 125 μM. Full spectral scans were performed for each evaluated analogue at pH 3.78 and pH 10.94 from 300 to 800 nm to determine λmax values for the protonated phenol (HA; e.g., HP 2 below) and the deprotonated phenolate species (A^−; e.g., conjugate base of HP 2 below). The change in absorption at each determined λmax in relation to pH was then monitored in each buffer and then plotted as absorbance versus pH for each species. The pKa was first estimated by determining the pH of the point of intersection of the two linear curves as shown. The visual estimation was confirmed by plotting pH versus log [A^−/HA]. The resulting plot yielded a linear regression line with a Y-intercept corresponding to a calculated pKa value.

human red blood cells = test: Hemolysis assay with red blood cells; settings: human, 1 h, 200 μM, pH 7.2
Summary of the method: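 Washed human red blood cells exposed to compounds added from DMSO stocks, 1 h at 37° C.; supernatant OD read at 405 nm after centrifugation. % hemolysis calculated relative to DMSO (0%) and Triton X (100%) controls, from three independent experiments.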

[2] = tested on: MRSA-1 (methicillin-resistant Staphylococcus aureus clinical isolate); test: MIC assay (broth microdilution, CLSI); assay type: cell-based; settings: Staphylococcus aureus, MRSA, read-out: MIC, MRSA-1
in vitro = assay type: cell-based; settings: human
HeLa cells = test: in vitro; assay type: cell-based
[3] = tested on: Enterococcus faecium (ATCC 700221), VRE; test: MIC assay (broth microdilution, CLSI); assay type: cell-based
MRSA BAA-1707 = test: MIC assay (broth microdilution, CLSI); settings: Staphylococcus aureus, read-out: MIC, MRSA BAA-1707
[4] = tested on: M. tuberculosis H37Ra (ATCC 25177); test: Mycobacterium tuberculosis MIC assay; assay type: cell-based
Summary of the method: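 Culture diluted to OD600 0.01 and exposed to compounds in 0.5% final DMSO, each compound tested in three rows. Growth read as OD600 absorbance. Data from three independent experiments.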

[5] = tested on: MRSA BAA-44 planktonic cells and biofilms; test: Calgary Biofilm Device (CBD) assay, MBC/MBEC; settings: Staphylococcus aureus, read-out: MRSA BAA-44 MBC
[6] = tested on: MRSA-2 planktonic cells and biofilms; test: Calgary Biofilm Device (CBD) assay, MBC/MBEC; assay type: cell-based, Staphylococcus aureus; settings: for MBC: Staphylococcus aureus, MRSA
[7] = Table 2B, b lowest concentration tested
[8] = Table 7, b lowest concentration tested, read-out: MIC, VRE 700221
[9] = Mycobacterium tuberculosis, Table 7, read-out: MIC, M. tuberculosis H37Ra
[10] = Table 5, a/b midpoint of 2-/4-fold range, read-out: MRSA-2 MBC
[11] = Table 8, a/b 2-/4-fold range in independent experiments, read-out: MRSA-2 MBC
[12] = viable biofilm cell count from CBD peg

Question: What does the source list for `Oc1ccc(I)c2nc3cc(Cl)c(Cl)cc3nc12` [Compound 12, 7,8-Dichloro-4-iodo-1-hydroxyphenazine]?
Answer: pKa [1]: 7.70; % Hemolysis (200 μM) (human red blood cells): 1.4%; % Hemolysis at 200 μM (human red blood cells): 1.4%; MIC [2, 7]: 0.2 µM (≈ 0.0782 µg/mL); MIC ([2]; Table 11): 0.3 µM (≈ 0.117 µg/mL); IC50 at 24 h (in vitro): > 100 µM; IC50 (HeLa cells; human, 24 h): > 100 µM; MIC ([3]; Enterococcus faecium, read-out: MIC, Enterococcus faecium (ATCC 700221), Table 2B, b lowest concentration tested): 3.13 µM; MIC [3, 8]: 3.13 µM; MIC ([3]; read-out: MIC, VRE 700221, Table 7, b lowest concentration tested): 3.13 to 6.25 µM; MIC (MRSA BAA-1707): 0.15 µM (≈ 0.0586 µg/mL); MIC ([4]; Mycobacterium tuberculosis, 168 h, read-out: Mtb MIC): 3.13 µM; MIC [4, 9]: 3.13 µM; MIC ([4]; Mycobacterium tuberculosis, read-out: MIC, M. tuberculosis): ~1 µg/mL; MBC [5]: 75 µM (≈ 29.3 µg/mL); MBC ([6]; Table 4, read-out: MBC, MRSA-2): 25 µM (≈ 9.77 µg/mL); MBC [6, 10]: 25 µM (≈ 9.77 µg/mL); MBC [6, 11]: 25 µM (≈ 9.77 µg/mL)

Question: What does the source list for `Oc1c(Br)cc(I)c2nc3cc(Cl)c(Cl)cc3nc12` [Compound 14, 2-bromo-7,8-dichloro-4-iodo-1-hydroxyphenazine]?
Answer: pKa [1]: 6.95; % Hemolysis (200 μM) (human red blood cells): 2.7%; % Hemolysis at 200 μM (human red blood cells): 2.7%; MIC [2, 7]: 0.1 µM (≈ 0.047 µg/mL); MIC ([2]; Table 11): 0.1 µM (≈ 0.047 µg/mL); IC50 at 24 h (in vitro): > 50 µM; HeLa cytotoxicity at 50 μM (HeLa cells): no cytotoxicity was observed; IC50 (HeLa cells; human, 24 h): > 50 µM; HeLa cytotoxicity at 50 μM (HeLa cells; human, 24 h, 50 μM): No HeLa cell death; HeLa cell death at 100 μM (HeLa cells; human, 24 h, 100 μM): ~70%; MIC ([3]; Enterococcus faecium, Table 2A, read-out: MIC, Enterococcus faecium (ATCC 700221)): < 0.1 µM; MIC ([3]; Enterococcus faecium, Table 2B, b lowest concentration tested, read-out: MIC, Enterococcus faecium (ATCC 700221)): 0.1 µM; MIC, VRE 700221 ([3]; Table 7, b lowest concentration tested): 0.10^b μM; MIC [3, 8]: 0.1 µM; MIC ([3]; read-out: MIC, VRE): 0.05 µg/mL; MIC (MRSA BAA-1707): 0.3 µM (≈ 0.141 µg/mL); MIC ([4]; Mycobacterium tuberculosis, 168 h, M. tuberculosis H37Ra, 7 days, read-out: Mtb MIC): 12.5 µM; MIC [4, 9]: 12.5 µM; MIC ([4]; Table 7, read-out: MIC, M. tuberculosis H37Ra): 12.5 µM; MBC [5]: 12.5 µM (≈ 5.87 µg/mL); MBC [6, 10]: 3.13 µM (≈ 1.47 µg/mL); MBC [6, 11]: 3.13 µM (≈ 1.47 µg/mL); persister cells eradicated within MRSA biofilms at the MBEC [6, 12]: > 99.9%; persister cells eradicated within MRSA-2 biofilms at the MBEC [6, 12]: > 3 log
